Patent US11891601B2, “Method to enhance the transcription regulation of SUPT4H on genes containing repetitive nucleotide sequences” (National Yang-Ming University, priority 2018, dated 2024)

Legend:
[1] = system: R-loops on (CAG)n-eGFP in ST14A cells; assay: RNA/DNA immunoprecipitation (DIP) assay of R-loops in ST14A cells expressing Q7-GFP or Q81-GFP; type: cell-based, rat; conditions: ST14A tet cells, tropolone 60 μM for 12 hours
Protocol: Yeast cells were collected after culturing in 2% galactose-containing medium for 12 hours, and then grinded by glass beads in the presence of 300 μl extraction buffer (10 mM Tris-HCl pH 8.0, 10 mM EDTA, 200 mM NaCl, 1% SDS, 2% Triton X-100, 25 units RNase inhibitor). The nucleic acid mixture was subjected to sonication (Bioruptor UCD-200) and extracted by phenol (pH 8.0). Purified chromatin DNA and RNA, with or without RNase H treatment for 90 minutes, was precipitated by monoclonal antibody S9.6 bound to protein G agarose beads. […] The RNA/DNA hybrid (R-loop) signal was analyzed by qPCR and the Quantitative-Comparative CT (MCT) program. In yeast experiments, a pair of primers (Primer-B F and Primer-B R) were used to quantify R-loop signal in the vicinity of CAG repeats and the primer set AMP was used as a control. […] For Hdh^Q7/Q7 and Hdh^Q111/Q111, mouse HTT DIP primer set was used to quantify R-loop signal of the CAG repeating region and Tubal a DIP primer set was included as a control. […]
Please refer to FIG. 6. […] A relative high signal of R-loops was detected in (CAG)7-eGFP, but this signal is not increased by tropolone. […] RNA was extracted and analyzed by real-time RT-qPCR to measure the quantity of (CAG)n-GFP, SUPT4H and snRNA U6. […]

human RNases H = conditions: Budihas et al, 2005; read-out: IC50, inhibition of enzymatic activity of human RNases H; cited from earlier work

O=c1cccccc1O [Tropolone]
R-loop signal by DIP assay, (CAG)8i-eGFP ([1]; long repeat): significantly increased
R-loop signal by DIP assay, (CAG)7-eGFP ([1]; short repeat (CAG)7-eGFP): not increased
IC50 (human RNases H): 5.7 µM
